ChEMBL document CHEMBL1221410, “Antioxidant flavone glycosides from the leaves of Fargesia robusta” (J Nat Prod, 2010)

What was measured:
[1] = Antioxidant activity against AAPH-induced lipid peroxidation assessed as trolox equivalent of peroxy radical scavenging activity after 10 mins by ORAC assay; assay type: functional
[2] = Antioxidant activity assessed as trolox equivalent of ABTS radical scavenging activity after 12 to 16 hrs by spectrophotometry; assay type: functional

Row | SMILES | Activity [1] | Activity [2]
1 | O=c1cc(-c2ccc(O)c(O)c2)oc2cc(O)c([C@@H]3O[C@H](CO)[C@@H](O)[C@H](O)[C@H]3O)c(O)c12 | 66.5 | 1.56
2 | O=c1c(O)c(-c2ccc(O)c(O)c2)oc2cc(O)cc(O)c12 | 8.7 | 3.99
3 | COc1cc(-c2cc(=O)c3c(O[C@@H]4O[C@H](CO)[C@@H](O)[C@H](O)[C@H]4O)cc(O)cc3o2)cc(OC)c1O | 18.2 | 0.063
4 | C[C@H]1O[C@@H](c2c(O[C@@H]3O[C@H](CO)[C@@H](O)[C@H](O)[C@H]3O)cc3oc(-c4ccc(O)c(O)c4)cc(=O)c3c2O)C[C@H](O)[C@H]1O | 26.8 | 0.332
5 | C[C@H]1O[C@@H](c2c(O)cc3oc(-c4ccc(O[C@@H]5O[C@H](CO)[C@@H](O)[C@H](O)[C@H]5O)c(O)c4)cc(=O)c3c2O)C[C@H](O)[C@H]1O | 8.3 | 0.075
6 | C[C@@H]1O[C@@H](O[C@@H]2C(=O)[C@H](O)[C@@H](C)O[C@H]2c2c(O)cc3oc(-c4ccc(O)c(O)c4)cc(=O)c3c2O)[C@H](O)[C@H](O)[C@H]1O | 5.7 | 0.646
